This is an account of results in patent US4303785A, “Antitumor anthracycline antibiotics” (priority 1978, dated 1981).

This assay relates to L1210 cells. The assay can be described thus: animal or person. The format is in vivo, CDF1 mice. Particulars: for response vs control in vivo at 0.15 mg/kg / response vs control in vivo at 0.31 mg/kg / response vs control in vivo at 0.625 mg/kg / response vs control in vivo at 1.25 mg/kg / response vs control in vivo at 2.5 mg/kg / response vs control in vivo at 5 mg/kg: Mus musculus, L1210, ip, 1080 h. The method, then: D. Representative compounds of general formula I" were tested against experimental animal tumors as follows: […]
CDF1 mice were administered intraperitoneally (i.p.) with 1×10^5 cells/mouse of L1210 cells. After 24 hours had elapsed since inoculation, the mice were administered the test compounds intraperitoneally once daily for 10 consecutive days and observed for a 45 day period.
The antitumor activity was shown by the prolongation rate of survival day (T/C, %) to the survival day of control mice injected with physiological saline.

[1] abbreviates: 0.15 mg/kg/day i.p., once daily for 10 days.
Where [2] appears, read: 0.31 mg/kg/day i.p., once daily for 10 days.
Setting [3] is: 0.625 mg/kg/day i.p., once daily for 10 days.
Where [4] appears, read: 1.25 mg/kg/day i.p., once daily for 10 days.
The mark [5] stands for this setting: 2.5 mg/kg/day i.p., once daily for 10 days.
[6] abbreviates: 5 mg/kg/day i.p., once daily for 10 days.
Where [7] appears, read: read-out: Antitumor Activity (T/C, prolongation rate of survival day), 0.15 mg/kg/day i.p., once daily for 10 days.
The mark [8] stands for this setting: read-out: Antitumor Activity (T/C, prolongation rate of survival day), 0.31 mg/kg/day i.p., once daily for 10 days.
Setting [9] is: read-out: Antitumor Activity (T/C, prolongation rate of survival day), 0.625 mg/kg/day i.p., once daily for 10 days.
[10] abbreviates: read-out: Antitumor Activity (T/C, prolongation rate of survival day), 1.25 mg/kg/day i.p., once daily for 10 days.
Setting [11] is: read-out: Antitumor Activity (T/C, prolongation rate of survival day), 2.5 mg/kg/day i.p., once daily for 10 days.
The mark [12] stands for this setting: read-out: Antitumor Activity (T/C, prolongation rate of survival day), 5 mg/kg/day i.p., once daily for 10 days.

SMILES strings stand for the structures. Where two headings read alike, the source gives them in different places.

In the case of `COc1cccc2c1C(=O)c1c(O)c3c(c(O)c1C2=O)C[C@@](O)(C(C)=O)C[C@@H]3O[C@H]1C[C@H](N)[C@H](OC(C)OCC(C)C)[C@H](C)O1` (single isomer, unassigned) [Example 17-b, 4'-O-(1-isobutyloxyethyl) daunomycin b], the “Antitumor Activity (T/C, prolongation rate of survival day)” value (“Antitumor Activity” for short) is, setting by setting: under setting [1], 100%; under setting [2], 100%; under setting [3], 100%; under setting [4], 106%; under setting [5], 113%; under setting [6], 188%.
`COc1cccc2c1C(=O)c1c(O)c3c(c(O)c1C2=O)C[C@@](O)(C(=O)CO)C[C@@H]3O[C@H]1C[C@H](N)[C@H](OC2CCCO2)[C@H](C)O1` (single isomer, unassigned) [Example 5-b, 4'-O-tetrahydrofuranyl adriamycin b]: the “Antitumor Activity” value runs as follows: under setting [1], 122%; under setting [2], 128%; under setting [3], 141%; under setting [4], 154%; under setting [5], 230%; under setting [6], 256%.
On to `CCOC(C)O[C@@H]1[C@H](C)O[C@@H](O[C@H]2C[C@](O)(C(C)=O)Cc3c(O)c4c(c(O)c32)C(=O)c2c(OC)cccc2C4=O)C[C@@H]1N` (single isomer, unassigned) [Example 16-b, 4'-O-(1-ethyloxyethyl) daunomycin b], for which the “Antitumor Activity” value reads like this: under setting [1], 90%; under setting [2], 96%; under setting [3], 108%; under setting [4], 112%; under setting [5], 133%; under setting [6], 247%.
For the molecule `COc1cccc2c1C(=O)c1c(O)c3c(c(O)c1C2=O)C[C@@](O)(C(C)=O)C[C@@H]3O[C@H]1C[C@H](N)[C@H](OC2CCCC(OC)O2)[C@H](C)O1` (single isomer, unassigned) [Example 14-b, 4'-O-(6-methoxytetrahydropyranyl) daunomycin b], the “Antitumor Activity” value by setting is: under setting [1], 94%; under setting [2], 100%; under setting [3], 106%; under setting [4], 113%; under setting [5], 131%; under setting [6], 463%.
With `CCOC(C)O[C@@H]1[C@H](C)O[C@@H](O[C@H]2C[C@](O)(C(=O)CO)Cc3c(O)c4c(c(O)c32)C(=O)c2c(OC)cccc2C4=O)C[C@@H]1N` (single isomer, unassigned) [Example 7-a, 4'-O-(1-ethyloxyethyl) adriamycin a], the “Antitumor Activity” value by setting is: under setting [5], 277%; under setting [6], 108%. In addition, the response vs control in vivo at 0.15 mg/kg under setting [7] was determined as 96%. For the same molecule, the response vs control in vivo at 0.31 mg/kg under setting [8] came to 101%. For the same molecule, under setting [9], the response vs control in vivo at 0.625 mg/kg amounted to 127%. Under setting [10], the response vs control in vivo at 1.25 mg/kg is 145%.
Regarding `COc1cccc2c1C(=O)c1c(O)c3c(c(O)c1C2=O)C[C@@](O)(C(=O)CO)C[C@@H]3O[C@H]1C[C@H](N)[C@H](OC2CCCO2)[C@H](C)O1` (single isomer, unassigned) [Example 5-a, 4'-O-tetrahydrofuranyl adriamycin a], the “Antitumor Activity” value is, setting by setting: under setting [1], 115%; under setting [2], 115%; under setting [3], 135%; under setting [4], 189%; under setting [5], 288%; under setting [6], 212%.
For `COc1cccc2c1C(=O)c1c(O)c3c(c(O)c1C2=O)C[C@@](O)(C(C)=O)C[C@@H]3O[C@H]1C[C@H](N)[C@H](OC2CCCC(OC)O2)[C@H](C)O1` (single isomer, unassigned) [Example 14-a, 4'-O-(6-methoxytetrahydropyranyl) daunomycin a], the “Antitumor Activity” value under setting [6] came out at 232%. Besides, under setting [7], the response vs control in vivo at 0.15 mg/kg came to 100%. In addition, under setting [8], the response vs control in vivo at 0.31 mg/kg amounted to 100%. For the same molecule, the response vs control in vivo at 0.625 mg/kg under setting [9] was determined as 100%. For the same molecule, under setting [10], the response vs control in vivo at 1.25 mg/kg is 106%. The response vs control in vivo at 2.5 mg/kg under setting [11] was determined as 125%.
As to `CCCCOC(C)O[C@@H]1[C@H](C)O[C@@H](O[C@H]2C[C@](O)(C(=O)CO)Cc3c(O)c4c(c(O)c32)C(=O)c2c(OC)cccc2C4=O)C[C@@H]1N` (single isomer, unassigned) [Example 8-b, 4'-O-(1-butyloxyethyl) adriamycin b], the “Antitumor Activity” value runs as follows: under setting [1], 100%; under setting [2], 100%; under setting [3], 106%; under setting [4], 119%; under setting [5], 138%; under setting [6], 288%.
Consider `CCOC(C)O[C@@H]1[C@H](C)O[C@@H](O[C@H]2C[C@](O)(C(C)=O)Cc3c(O)c4c(c(O)c32)C(=O)c2c(OC)cccc2C4=O)C[C@@H]1N` (single isomer, unassigned) [Example 16-a, 4'-O-(1-ethyloxyethyl) daunomycin a], for which the “Antitumor Activity” value was found to be 157% under setting [5] and 217% under setting [6]. In addition, under setting [7], the response vs control in vivo at 0.15 mg/kg came out at 96%. In addition, the response vs control in vivo at 0.31 mg/kg under setting [8] was found to be 96%. Further, the response vs control in vivo at 0.625 mg/kg under setting [9] was 104%. For the same molecule, under setting [10], the response vs control in vivo at 1.25 mg/kg is 102%.
In the case of `COc1cccc2c1C(=O)c1c(O)c3c(c(O)c1C2=O)C[C@@](O)(C(C)=O)C[C@@H]3O[C@H]1C[C@H](N)[C@H](OC2CCCO2)[C@H](C)O1` (stereo partly drawn) [Example 12, 4'-O-(tetrahydrofuranyl) daunomycin], the response vs control in vivo at 0.15 mg/kg (0.15 mg/kg/day i.p., once daily for 10 days, read-out: Antitumor Activity (T/C, prolongation rate of survival day)) amounted to 99%. In addition, the response vs control in vivo at 0.31 mg/kg (0.31 mg/kg/day i.p., once daily for 10 days, read-out: Antitumor Activity (T/C, prolongation rate of survival day)) was found to be 105%. Also, the response vs control in vivo at 0.625 mg/kg (0.625 mg/kg/day i.p., once daily for 10 days, read-out: Antitumor Activity (T/C, prolongation rate of survival day)) came to 111%. Besides, the response vs control in vivo at 1.25 mg/kg (1.25 mg/kg/day i.p., once daily for 10 days, read-out: Antitumor Activity (T/C, prolongation rate of survival day)) was found to be 111%. Besides, for the setting “2.5 mg/kg/day i.p., once daily for 10 days, read-out: Antitumor Activity (T/C, prolongation rate of survival day)”, the response vs control in vivo at 2.5 mg/kg stood at 160%. Further, the response vs control in vivo at 5 mg/kg (5 mg/kg/day i.p., once daily for 10 days, read-out: Antitumor Activity (T/C, prolongation rate of survival day)) turned out to be 346%.
Regarding `COC(=O)C1CCCC(O[C@@H]2[C@H](C)O[C@@H](O[C@H]3C[C@](O)(C(C)=O)Cc4c(O)c5c(c(O)c43)C(=O)c3c(OC)cccc3C5=O)C[C@@H]2N)O1` (stereo partly drawn) [Example 15, 4'-O-(6-carbomethoxytetrahydropyranyl) daunomycin], the response vs control in vivo at 0.15 mg/kg under setting [7] came out at 100%. Also, under setting [8], the response vs control in vivo at 0.31 mg/kg was determined as 100%. Also, the response vs control in vivo at 0.625 mg/kg under setting [9] is 100%. Moreover, the response vs control in vivo at 1.25 mg/kg under setting [10] was found to be 100%. Under setting [11], the response vs control in vivo at 2.5 mg/kg came to 106%. In addition, under setting [12], the response vs control in vivo at 5 mg/kg amounted to 131%.
In the case of `COc1cccc2c1C(=O)c1c(O)c3c(c(O)c1C2=O)C[C@@](O)(C(=O)CO)C[C@@H]3O[C@H]1C[C@H](N)[C@H](OC(C)OC2CCCCC2)[C@H](C)O1` (single isomer, unassigned) [Example 11-a, 4'-O-(1-cyclohexyloxyethyl) adriamycin a], the “Antitumor Activity” value under setting [6] came to 184%. The response vs control in vivo at 0.15 mg/kg under setting [7] came out at 105%. In addition, the response vs control in vivo at 0.31 mg/kg under setting [8] was found to be 99%. Further, under setting [9], the response vs control in vivo at 0.625 mg/kg was 105%. Moreover, the response vs control in vivo at 1.25 mg/kg under setting [10] stood at 118%. Also, the response vs control in vivo at 2.5 mg/kg under setting [11] was 125%.
`COc1cccc2c1C(=O)c1c(O)c3c(c(O)c1C2=O)C[C@@](O)(C(=O)CO)C[C@@H]3O[C@H]1C[C@H](N)[C@H](OC2CCCC(COC(C)=O)O2)[C@H](C)O1` (stereo partly drawn) [Example 6, 4'-O-(6-acetoxymethyltetrahydropyranyl) adriamycin]: under setting [7], the response vs control in vivo at 0.15 mg/kg was determined as 100%. Further, the response vs control in vivo at 0.31 mg/kg under setting [8] worked out at 88%. Further, under setting [9], the response vs control in vivo at 0.625 mg/kg stood at 106%. Further, under setting [10], the response vs control in vivo at 1.25 mg/kg was determined as 118%. The response vs control in vivo at 2.5 mg/kg under setting [11] worked out at 118%. Also, the response vs control in vivo at 5 mg/kg under setting [12] is 141%.
